According to ChEMBL document CHEMBL1153474, “Novel tricyclic antagonists of the prostaglandin D2 receptor DP2 with efficacy in a murine model of allergic rhinitis” (Bioorg Med Chem Lett, 2009):
Activity calls are given as the source filed them. The rule behind the calls is not given here.

Experiments:
Blood = assay: Inhibition of eosinophil […] in human whole blood assessed as change in morphology after 4 mins using flow cytometry by leukocyte shape change assay; type: functional, tissue-based
Prostacyclin receptor = Prostacyclin receptor (Homo sapiens, UniProt P43119); assay: Displacement of [3H]iloprost from human prostacyclin receptor expressed in human 293 cell membrane; type: cell membranes
Cytochrome P450 2C9 = Cytochrome P450 2C9 (Homo sapiens, UniProt P11712); assay: Inhibition of human CYP2C9; type: ADME
Cytochrome P450 3A4 [1] = target: T1, Cytochrome P450 3A4 (Homo sapiens, UniProt P08684); assay: Induction of CYP3A4 activity in cryopreserved human hepatocytes at 10 uM using midazolam as substrate after 2 days relative to rifampicin; conditions: 48 h
Cytochrome P450 2D6 = Cytochrome P450 2D6 (Homo sapiens, UniProt P10635); assay: Inhibition of human CYP2D6; type: ADME
Thromboxane A2 receptor = target: T2, Thromboxane A2 receptor (Homo sapiens, UniProt P21731); assay: Displacement of [3H]SQ-29548 from thromboxane receptor in human platelet membrane; type: cell membranes
T2 sequence (P21731 whole entry): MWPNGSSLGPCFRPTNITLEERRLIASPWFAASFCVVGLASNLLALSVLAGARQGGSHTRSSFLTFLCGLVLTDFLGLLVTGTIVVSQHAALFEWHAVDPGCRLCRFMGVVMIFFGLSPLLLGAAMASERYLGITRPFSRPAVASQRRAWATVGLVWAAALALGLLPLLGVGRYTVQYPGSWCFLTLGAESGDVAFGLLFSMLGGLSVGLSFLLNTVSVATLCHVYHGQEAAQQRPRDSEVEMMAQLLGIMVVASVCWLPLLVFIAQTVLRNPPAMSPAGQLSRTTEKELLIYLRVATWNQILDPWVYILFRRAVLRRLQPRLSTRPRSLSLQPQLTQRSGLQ

[2] = target: T3, Prostaglandin D2 receptor (Homo sapiens, UniProt Q13258); assay: Displacement of [3H]PGD2 from […] in human platelet membrane; type: cell membranes
T3 sequence (Q13258 whole entry): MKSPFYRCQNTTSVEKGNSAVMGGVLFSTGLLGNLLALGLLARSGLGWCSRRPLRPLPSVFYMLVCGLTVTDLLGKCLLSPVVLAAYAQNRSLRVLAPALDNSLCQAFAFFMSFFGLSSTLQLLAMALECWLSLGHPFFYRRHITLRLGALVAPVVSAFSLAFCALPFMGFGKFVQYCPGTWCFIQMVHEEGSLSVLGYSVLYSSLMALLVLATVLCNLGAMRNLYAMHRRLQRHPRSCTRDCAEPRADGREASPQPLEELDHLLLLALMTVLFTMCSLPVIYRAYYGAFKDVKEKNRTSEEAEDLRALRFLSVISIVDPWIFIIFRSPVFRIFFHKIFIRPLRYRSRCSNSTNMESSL

[3] = target: T4, Prostaglandin D2 receptor 2 (Homo sapiens, UniProt Q9Y5Y4); assay: Displacement of [3H]PGD2 from human prostaglandin D2 receptor
T4 sequence (Q9Y5Y4 whole entry): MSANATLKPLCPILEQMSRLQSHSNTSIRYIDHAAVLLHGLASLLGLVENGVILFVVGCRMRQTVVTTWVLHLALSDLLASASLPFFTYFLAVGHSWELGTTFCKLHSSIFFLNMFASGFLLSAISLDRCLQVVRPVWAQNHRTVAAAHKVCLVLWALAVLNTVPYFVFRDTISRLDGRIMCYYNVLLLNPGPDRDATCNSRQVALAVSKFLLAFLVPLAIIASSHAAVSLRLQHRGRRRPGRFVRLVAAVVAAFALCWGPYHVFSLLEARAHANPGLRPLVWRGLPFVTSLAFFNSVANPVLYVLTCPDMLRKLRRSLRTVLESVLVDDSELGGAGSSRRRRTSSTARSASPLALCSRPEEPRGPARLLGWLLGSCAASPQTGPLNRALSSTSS

Cytochrome P450 3A4 [4] = target: T1, Cytochrome P450 3A4; assay: Inhibition of human CYP3A4; type: ADME
[5] = target: T4, Prostaglandin D2 receptor 2; assay: Displacement of [3H]PGD2 from human prostaglandin D2 receptor in presence of human serum albumin
Mus musculus [6] = assay: Reduction of ovalbumin-induced increase in sneezes in BALB/c mouse at 10 mg/kg, po once daily for 3 days administered 20 days after ip challenge with ovalbumin followed by intranasal ovalbumin challenge 1 hr post drug dose measured after 8 mins; type: functional, organism-based; design: dose 10 mg/kg
Mus musculus [7] = assay: Reduction of ovalbumin-induced increase in nasal rubs in BALB/c mouse at 10 mg/kg, po once daily for 3 days administered 20 days after ip challenge with ovalbumin followed by intranasal ovalbumin challenge 1 hr post drug dose measured after 8 mins; type: functional, organism-based; design: dose 10 mg/kg
[8] = Cmin in BALB/c mouse at 10 mg/kg, po administered once daily for 3 days measured after 8 hrs; type: ADME, organism-based; design: dose 10 mg/kg, route oral; conditions: in vivo, read-out: Cmin
[9] = Cmax in BALB/c mouse at 10 mg/kg, po administered once daily for 3 days measured after 1 hr; type: ADME, organism-based; design: dose 10 mg/kg, route oral; conditions: in vivo

Sequence of Cytochrome P450 2D6 (P10635 whole entry): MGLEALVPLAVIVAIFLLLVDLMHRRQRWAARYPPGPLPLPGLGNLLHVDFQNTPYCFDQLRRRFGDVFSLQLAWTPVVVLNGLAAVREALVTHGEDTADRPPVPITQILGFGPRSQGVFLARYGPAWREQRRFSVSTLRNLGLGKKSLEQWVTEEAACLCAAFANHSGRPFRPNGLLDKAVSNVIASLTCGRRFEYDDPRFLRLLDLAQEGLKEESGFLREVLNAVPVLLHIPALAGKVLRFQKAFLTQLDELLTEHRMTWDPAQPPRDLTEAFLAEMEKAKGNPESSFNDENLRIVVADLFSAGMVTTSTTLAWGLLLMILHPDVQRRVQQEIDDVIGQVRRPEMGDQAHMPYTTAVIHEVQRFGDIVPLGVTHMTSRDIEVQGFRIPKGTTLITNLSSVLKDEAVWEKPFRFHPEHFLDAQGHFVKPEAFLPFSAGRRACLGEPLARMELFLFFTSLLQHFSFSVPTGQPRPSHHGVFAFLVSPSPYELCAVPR
Sequence of Cytochrome P450 2C9 (P11712 whole entry): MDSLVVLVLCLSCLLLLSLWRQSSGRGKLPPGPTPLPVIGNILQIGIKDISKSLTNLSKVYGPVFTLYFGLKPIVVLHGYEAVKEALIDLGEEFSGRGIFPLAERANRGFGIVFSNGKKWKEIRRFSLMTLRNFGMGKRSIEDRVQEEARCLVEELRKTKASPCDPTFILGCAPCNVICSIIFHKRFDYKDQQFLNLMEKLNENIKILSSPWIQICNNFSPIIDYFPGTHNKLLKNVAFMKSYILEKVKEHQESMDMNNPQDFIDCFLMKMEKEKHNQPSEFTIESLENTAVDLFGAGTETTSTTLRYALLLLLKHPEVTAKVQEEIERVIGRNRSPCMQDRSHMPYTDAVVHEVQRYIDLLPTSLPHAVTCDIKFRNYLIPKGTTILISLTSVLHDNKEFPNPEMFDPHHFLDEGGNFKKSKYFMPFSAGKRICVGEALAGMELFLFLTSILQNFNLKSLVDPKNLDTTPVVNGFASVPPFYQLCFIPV
Sequence of Prostacyclin receptor (P43119 whole entry): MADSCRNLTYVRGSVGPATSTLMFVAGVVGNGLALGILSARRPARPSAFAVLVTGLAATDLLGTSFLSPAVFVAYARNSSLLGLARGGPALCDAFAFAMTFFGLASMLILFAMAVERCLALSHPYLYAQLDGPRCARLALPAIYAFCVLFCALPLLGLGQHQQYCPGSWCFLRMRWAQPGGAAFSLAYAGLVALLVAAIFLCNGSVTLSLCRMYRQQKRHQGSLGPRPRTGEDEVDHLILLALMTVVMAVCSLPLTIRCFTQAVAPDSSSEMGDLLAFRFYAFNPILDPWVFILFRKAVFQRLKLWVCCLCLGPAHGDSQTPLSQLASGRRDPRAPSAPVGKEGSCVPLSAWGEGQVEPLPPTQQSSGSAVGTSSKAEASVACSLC
T1 sequence (P08684 whole entry): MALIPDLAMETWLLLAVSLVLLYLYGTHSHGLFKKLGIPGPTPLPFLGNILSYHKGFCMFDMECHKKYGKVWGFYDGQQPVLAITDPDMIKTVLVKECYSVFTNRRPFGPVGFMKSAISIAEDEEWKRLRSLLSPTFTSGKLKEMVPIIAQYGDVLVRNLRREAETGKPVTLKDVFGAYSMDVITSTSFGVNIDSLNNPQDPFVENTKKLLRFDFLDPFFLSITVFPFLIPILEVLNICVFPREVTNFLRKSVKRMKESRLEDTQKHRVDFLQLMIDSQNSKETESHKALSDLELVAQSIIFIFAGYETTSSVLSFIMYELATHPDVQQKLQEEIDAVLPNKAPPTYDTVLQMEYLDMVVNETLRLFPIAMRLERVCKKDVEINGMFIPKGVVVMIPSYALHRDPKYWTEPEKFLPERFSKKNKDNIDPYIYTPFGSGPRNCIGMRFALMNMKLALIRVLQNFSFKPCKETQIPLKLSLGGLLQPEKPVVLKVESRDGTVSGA

SMILES: Cc1c(Cc2ccc3ccccc3n2)c2cc(F)ccc2n1CC(=O)O [TIMAPIPRANT]
- IC50 (Blood): 0.261 µM
- IC50 (Prostacyclin receptor): 57.9 µM
- IC50 (Cytochrome P450 2C9): > 30 µM
- Activity (Cytochrome P450 3A4 [1]): 58.8%
- IC50 (Cytochrome P450 2D6): > 30 µM
- IC50 (Thromboxane A2 receptor): > 100 µM
- IC50 [2]: 7.3 µM

SMILES: CN([C@@H]1CCc2c(c3nccnc3n2CC(=O)O)C1)S(=O)(=O)c1ccc(F)cc1
- IC50 [3]: 0.096 µM
- IC50 (Cytochrome P450 3A4 [4]): > 30 µM
- IC50 (Blood): 0.14 µM
- IC50 [5]: 0.127 µM
- IC50 (Prostacyclin receptor): > 100 µM
- IC50 (Cytochrome P450 2C9): 15 µM
- Activity (Cytochrome P450 3A4 [1]): 0.9%
- IC50 (Cytochrome P450 2D6): > 30 µM
- IC50 (Thromboxane A2 receptor): > 100 µM
- IC50 [2]: 37.8 µM

SMILES: CN(C)c1nc(Cc2ccc(NC(=O)c3ccc(C(F)(F)F)cc3)cc2)nc(N(C)C)c1CC(=O)O [BI-671800]
- IC50 [3]: 0.042 µM
- IC50 (Blood): 0.744 µM
- IC50 [5]: 0.744 µM
- IC50 (Prostacyclin receptor): > 100 µM
- IC50 (Cytochrome P450 2C9): > 30 µM
- Activity (Cytochrome P450 3A4 [1]): 0.4%
- IC50 (Cytochrome P450 2D6): > 30 µM
- IC50 (Thromboxane A2 receptor): 62.6 µM
- IC50 [2]: 25.6 µM

SMILES: CN([C@@H]1CCc2c(c3ccncc3n2CC(=O)O)C1)S(=O)(=O)c1ccc(F)cc1
- IC50 [3]: 0.86 µM
- IC50 (Cytochrome P450 3A4 [4]): > 30 µM
- IC50 (Blood): 0.452 µM
- IC50 [5]: 0.94 µM
- IC50 (Prostacyclin receptor): > 100 µM
- IC50 (Cytochrome P450 2C9): > 30 µM
- Activity (Cytochrome P450 3A4 [1]): 0.4%
- IC50 (Cytochrome P450 2D6): > 30 µM
- IC50 (Thromboxane A2 receptor): > 100 µM
- IC50 [2]: > 100 µM

SMILES: CN([C@@H]1CCc2c(CC(=O)O)c3ncccc3n2C1)S(=O)(=O)c1ccc(F)cc1
- IC50 [3]: 24.9 µM
- IC50 (Cytochrome P450 3A4 [4]): > 30 µM
- IC50 (Blood): 41.6 µM
- IC50 [5]: 51 µM
- IC50 (Prostacyclin receptor): > 100 µM
- IC50 (Cytochrome P450 2C9): > 30 µM
- Activity (Cytochrome P450 3A4 [1]): 0.9%
- IC50 (Cytochrome P450 2D6): > 30 µM
- IC50 (Thromboxane A2 receptor): > 100 µM
- IC50 [2]: 41.7 µM

SMILES: CN([C@@H]1CCc2c(CC(=O)O)c3ccccc3n2C1)S(=O)(=O)c1ccc(F)cc1 [MK-7246]
- IC50 [3]: 0.006 µM
- IC50 (Cytochrome P450 3A4 [4]): 7 µM
- IC50 (Blood): 0.007 µM
- IC50 [5]: 0.02 µM
- IC50 (Prostacyclin receptor): > 100 µM
- IC50 (Cytochrome P450 2C9): 5 µM
- Activity (Cytochrome P450 3A4 [1]): 0.7%
- IC50 (Cytochrome P450 2D6): > 30 µM
- IC50 (Thromboxane A2 receptor): > 100 µM
- IC50 [2]: 1 µM

SMILES: CN([C@@H]1CCc2c(CC(=O)O)c3ccccn3c2C1)S(=O)(=O)c1ccc(F)cc1
- IC50 [3]: 0.018 µM
- IC50 (Cytochrome P450 3A4 [4]): > 30 µM
- IC50 (Blood): 0.006 µM
- IC50 [5]: 0.046 µM
- IC50 (Prostacyclin receptor): > 100 µM
- IC50 (Cytochrome P450 2C9): 17 µM
- Activity (Cytochrome P450 3A4 [1]): 0.9%
- IC50 (Cytochrome P450 2D6): > 30 µM
- IC50 (Thromboxane A2 receptor): > 100 µM
- IC50 [2]: 4.4 µM

SMILES: CN([C@@H]1CCc2c(c3ccccn3c2CC(=O)O)C1)S(=O)(=O)c1ccc(F)cc1
- IC50 [3]: 0.094 µM
- IC50 (Cytochrome P450 3A4 [4]): 11 µM
- IC50 (Blood): 0.016 µM
- IC50 [5]: 0.061 µM
- IC50 (Prostacyclin receptor): > 100 µM
- IC50 (Cytochrome P450 2C9): 10 µM
- IC50 (Cytochrome P450 2D6): > 30 µM
- IC50 [2]: 31 µM

SMILES: O=C(O)CCn1c2c(c3ccccc31)C[C@H](NS(=O)(=O)c1ccc(F)cc1)CC2 [RAMATROBAN]
- IC50 [3]: 0.311 µM
- IC50 (Blood): 1.21 µM
- IC50 [5]: 0.754 µM
- IC50 (Prostacyclin receptor): > 100 µM
- IC50 (Cytochrome P450 2C9): 15 µM
- IC50 (Cytochrome P450 2D6): > 30 µM
- IC50 (Thromboxane A2 receptor): 0.014 µM
- IC50 [2]: 33.4 µM

SMILES: CN([C@@H]1CCc2c(c3ncccc3n2CC(=O)O)C1)S(=O)(=O)c1ccc(F)cc1
- IC50 [3]: 0.006 µM
- IC50 (Cytochrome P450 3A4 [4]): > 30 µM
- IC50 (Blood): 0.001 µM
- IC50 [5]: 0.011 µM
- IC50 (Prostacyclin receptor): > 100 µM
- Activity (Mus musculus [6]): Active
- IC50 (Cytochrome P450 2C9): > 30 µM
- Activity (Mus musculus [7]): Active
- Activity (Cytochrome P450 3A4 [1]): 2.8%
- IC50 (Cytochrome P450 2D6): > 30 µM
- concentration at 8 h [8]: 120 nM
- IC50 (Thromboxane A2 receptor): > 100 µM
- Cmax [9]: 770 nM
- IC50 [2]: > 100 µM

SMILES: CN([C@@H]1CCC2=C(C1)C1C=CC=CC1N2CC(=O)O)S(=O)(=O)c1ccc(F)cc1 (stereo partly specified)
- IC50 [3]: 0.001 µM
- IC50 (Cytochrome P450 3A4 [4]): > 30 µM
- IC50 (Blood): 0.001 µM
- IC50 [5]: 0.004 µM
- IC50 (Prostacyclin receptor): > 100 µM
- IC50 (Cytochrome P450 2C9): 18 µM
- Activity (Cytochrome P450 3A4 [1]): 30.8%
- IC50 (Cytochrome P450 2D6): > 30 µM
- IC50 (Thromboxane A2 receptor): > 100 µM
- IC50 [2]: 2.2 µM

SMILES: CN([C@@H]1CCc2c(c3cccnc3n2CC(=O)O)C1)S(=O)(=O)c1ccc(F)cc1
- IC50 [3]: 0.457 µM
- IC50 (Cytochrome P450 3A4 [4]): > 30 µM
- IC50 (Blood): 3.1 µM
- IC50 [5]: 1.34 µM
- IC50 (Prostacyclin receptor): > 100 µM
- IC50 (Cytochrome P450 2C9): > 30 µM
- Activity (Cytochrome P450 3A4 [1]): 2.8%
- IC50 (Cytochrome P450 2D6): > 30 µM
- IC50 (Thromboxane A2 receptor): > 100 µM
- IC50 [2]: 9 µM
